Results on eight compounds are retold here after ChEMBL document CHEMBL2034892, “The relevance of higher plants in lead compound discovery programs” (J Nat Prod, 2011).

Values after ≈ are worked out from the molar mass of the structure shown.

Data set [1] concerns P388. The data set can be described thus: Antitumor activity against mouse P388 cells xenografted in mouse assessed as increase in life span at 2.5 mg/kg, ip dosed daily for 5 days. The conditions noted are these: route intraperitoneal. The class given is functional.
A short description of data set [2]: Systemic availability in ip dosed C57BL/6 mouse. In kind it is ADME, organism-based. The conditions noted are these: in vivo.
Data set [3] is described as follows: Oral bioavailability in C57BL/6 mouse. In kind it is ADME, organism-based. The conditions noted are these: in vivo.
The subject of data set [4] is P388. Nature of the data set: Antitumor activity against mouse P388 cells xenografted in mouse assessed as increase in life span at 2 mg/kg, iv dosed twice daily for 5 days.
Data set [5] has as its target T1, Taste receptor type 2 member 31 (Homo sapiens, UniProt P59538).
T1 sequence (P59538 whole entry): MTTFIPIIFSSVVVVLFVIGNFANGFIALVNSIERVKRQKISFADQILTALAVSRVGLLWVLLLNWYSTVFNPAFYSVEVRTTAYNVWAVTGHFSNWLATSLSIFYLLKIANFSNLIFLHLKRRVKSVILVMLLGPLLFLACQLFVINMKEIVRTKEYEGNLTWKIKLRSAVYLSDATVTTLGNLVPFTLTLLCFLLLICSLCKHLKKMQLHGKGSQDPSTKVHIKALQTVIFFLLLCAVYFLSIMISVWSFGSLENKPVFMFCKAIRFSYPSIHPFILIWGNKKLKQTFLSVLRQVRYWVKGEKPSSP
Nature of the data set: Inhibition of human TAS2R31 receptor expressed in HEK293T cells overexpressing chimeric G-protein alpha-subunit. In kind it is cell-based, HEK-293T.

Data set [6] can be described thus: Inhibition of proteasome. The class given is subcellular.
Data set [7] concerns KB. The data set can be described thus: Cytotoxicity against human KB cells. The class given is functional, cell-based.
Data set [8] relates to HT-29. The data set can be described thus: Cytotoxicity against human HT-29 cells. The class given is functional. The conditions noted are these: read-out: ED50 (the source's name).

The term T/C denotes the result in the treated group divided by that in the control group, in per cent. The bioavailability is the share of a dose that reaches the circulation, judged against a reference dose that is usually intravenous. Low readings indicate little systemic uptake, high ones much systemic uptake. One may read the IC50 as the concentration that gives 50% inhibition. Low values mean inhibition by little substance, high ones a need for much substance.

With `COC(=O)[C@H]1[C@@H](O)[C@@]2(O)c3c(OC)cc(O[C@@H]4O[C@@H]([C@H](O)CO)CO[C@H]4OC)cc3O[C@@]2(c2ccc(OC)cc2)[C@@H]1c1ccccc1` [SILVESTROL], the values for the T/C in data set [1] and in data set [4] were 150% and 129%, respectively. Also, the bioavailability in data set [2] came out at 100%; in data set [3], 1.7%.

`COc1cc(O)c2c(c1)O[C@H](c1ccc(O)cc1)CC2=O` [SAKURANETIN] returned an IC50 in data set [5] of 3600 nM.

`O=C1c2c(O)cc(O)cc2O[C@H](c2ccc(O)cc2)[C@H]1c1c(O)cc(O)c2c(=O)cc(-c3ccc(O)c(O)c3)oc12` [MORELLOFLAVONE] yielded a half-inhibitory concentration (IC50) in data set [6] of 1300 nM.

The compound `COc1cc([C@@H]2CC(=O)c3c(O)cc(O)cc3O2)ccc1OC(=O)C(C)C` yielded an IC50 in data set [5] of 2000 nM.

`Oc1ccc([C@H]2c3c(O)cc4c(c3[C@@H]3c5c(O)cc6c(c5[C@H]2[C@@H]3c2ccc(O)cc2)[C@H](c2cc(O)cc(O)c2)[C@@H](c2ccc(O)cc2)O6)[C@@H](c2cc(O)cc(O)c2)[C@H](c2ccc(O)cc2)O4)cc1` [VATDIOSPYROIDOL] yielded an EC50 in data set [7] of 1 µg/mL (≈ 1.1 µM).

Take `CC(C)=CCc1c2c(c(O)c3c1O[C@]14C(=C[C@@H]5C[C@H]1C(C)(C)O[C@@]4(C/C=C(/C)C(=O)O)C5=O)C3=O)C=CC(C)(C)O2`: the EC50 in data set [8] is 360 nM.

`COc1cc(-c2cc(=O)c3c(O)c(OC)c(O)cc3o2)ccc1O` [JACEOSIDINE] showed an IC50 in data set [5] of 11300 nM.

In turn, `COc1cc2c(c(O)c1OC)C(=O)C[C@@H](c1ccc(O)cc1)O2` had an IC50 in data set [5] of 2500 nM.
